Measurements from patent publication US10894777B2, “TG2 inhibitor piperazine compounds and uses thereof” (UNIVERSITY OF OTTAWA, priority 2016, dated 2021).

Columns and labels:
NFκB = NFκB subcellular distribution (cell fractionation, immunoblot), ECS cells; format: cell-based, human; conditions: 8 day spheroids, 20 μM, 48 h
Experimental: In (A), it is shown that ECS cells have reduced NFκB-p65 levels. SCC-13 cells (40,000) were grown in spheroid medium in attached (monolayer) and non-attached (spheroid, ECS cells) conditions. Lysates were prepared after 10 d in culture for electrophoresis and detection of indicated epitopes. In (B). […] and SCC13-TG2-shRNA2 cells were grown in spheroid medium as monolayers. After 10 d in culture, lysates were collected for detection of TG2 and NFκB-p65. In (C), SCC-13 cells were electroporated with control-, NFκB-p65- or TG2-siRNA and then cultured as monolayers in spheroid medium. After 72 h extracts were prepared to assay TG2, NFκB-p65 and EMT markers. In (D), SCC-13 cells were electroporated with empty vector Control- or TG2-siRNA and plated in monolayer culture. The following day cells were fixed, permeabilized and incubated with antibodies specific for the indicated epitopes. […] In (E), an equal number of cell equivalents of total (T), nuclear (N), and cytosolic (C) extract, prepared from SCC13-Control-shRNA and SCC13-TG2-shRNA2 (TG2 knockdown) cells, was electrophoresed for immunoblot detection of NFκB, histone 3 (nuclear marker) and β-actin (cytoplasmic marker). […] In (F), total (T), nuclear (N), and cytosolic (C) extract was prepared from 8 day spheroids (ECS cells) treated with 0 or 20 μM NC9 for 48 h. […]

A431 cells = experiment: Matrigel invasion assay, A431 cells; format: cell-based, human
Experimental: In (A), it is shown that A431-derived ECS cells have elevated TG2 and mesenchymal markers. A431 cells (40,000 cells/well) were grown in spheroid media in monolayer conditions or as non-attached spheroids (ECS cells) for 10 d. Cells were harvested and lysates prepared for immunoblot. In (B), A431 cells were electroporated with 3 μg of control- or TG2-siRNA and at 72 h extracts were prepared to assay TG2 and EMT marker level. In (C), A431-derived ECS cells were electroporated with 3 μg of the indicated siRNA and then grown as spheroids for 96 h. […] In (D), A431 cells (500,000 cells/well) were plated in monolayer culture in spheroid media in 100 mm dishes. […] Confluent monolayers were then scratched with a 10-μL pipette tip, rinsed, and width of the wound was monitored for 0-14 h.
In (A), A431 cells were grown as monolayers or in ultralow attachment plates (spheroids) in spheroid medium. […] Spheroid number was counted on days 1, 2 and 3. […] Spheroid number and trypan-blue viable cell number were determined at the indicated times following NC9 addition. […] A wound was created and ability of the cells to close the wound was monitored with time. […]
Invasion assay. […] The membrane was fixed in 4% paraformaldehyde, stained with 1 μg/m DAPI, and the underside of the membrane was photographed with an inverted fluorescent microscope and the number of cells counted.

With `C=CC(=O)NCCCC[C@H](NC(=O)OCc1ccccc1)C(=O)NCCOCCOCCNS(=O)(=O)c1cccc2c(N(C)C)cccc12` [NC9] the “cytoplasmic/nuclear distribution of NFκB” value (NFκB) was “not altered”, the “reduction of ability of A431 ECS cells to invade Matrigel” value (A431 cells; 20 μM 1 hour, 24 hours) was 50% and the matrigel invasion (A431 cells; 20 μM pretreatment 2 h, 30 h) was “reduced matrigel invasion”.
